What was measured:
[1] = tested on: patients with pulmonary embolism; details: human, in vivo; cited from earlier work
[2] = tested on: patients with symptomatic pulmonary embolism with or without symptomatic deep venous thrombosis; test: CASSIOPEA (EFC6034) phase III clinical trial: deaths; format: in vivo, human; details: overall
Source text: (§1) A blinded central and independent adjudication committee (CIAC) assesses PE (and DVT when applicable), all episodes of locally confirmed or doubtful PE/DVT recurrences, clinically relevant bleedings and deaths. Adjudication results are the basis for the final analyses.

[3] = tested on: patients with symptomatic pulmonary embolism with or without symptomatic deep venous thrombosis; test: CASSIOPEA (EFC6034) phase III clinical trial: symptomatic recurrent PE/DVT (efficacy); format: in vivo, human
Protocol: Patients with confirmed symptomatic PE with or without acute symptomatic DVT are eligible for this trial. Treatment with a therapeutic dose of any LMWH or UFH or fondaparinux is allowed only within the 36 hours immediately preceding randomization. Randomization is performed as soon as the diagnosis of PE (and DVT if concomitant suspected symptomatic DVT) is confirmed.
as §1
Patients in the 3-month stratum have an additional 13-week observational period after cessation of study treatment. Patients in the 6-month stratum have a 13-week up to 26-week observational period.
Injections of SSR126517E (or its placebo) is started 12 h after the last post-randomization enoxaparin administration. SSR126517E (or its placebo) is administered s.c. once-weekly for a period of 3 or 6 months. All patients receive a first 0.5 ml injection (3.0 mg in the SSR126517E group). The following injections are also 0.5 ml, except in patients with severe renal insufficiency (defined as creatinine clearance <30 mL/min), who decrease to a dosage of 0.3 ml (1.8 mg in the SSR126517E group).
The primary efficacy outcome is symptomatic recurrent PE/DVT (fatal or not), as validated by the CIAC, within 99 days for patients from both strata (3- and 6-month treatments).
A secondary efficacy outcome for patients in the 6-month stratum is symptomatic recurrent PE/DVT, as validated by the CIAC, within 190 days.
There are 2 additional efficacy outcomes: • the time to first symptomatic recurrent PE/DVT (fatal or non fatal) within the patient's treatment period, i.e. a combined analysis of the 3-and 6-month strata patients; • the separate components of the efficacy outcomes within 99 days (all patients) and within 190 days (6-month stratum patients only).
The definitions to confirm a suspected symptomatic episode of recurrent PE/DVT are as follows:
Efficacy analyses are performed on the—All-randomized—population (patients with a patient number and an allocated treatment number recorded in the IVRS database).
The secondary efficacy outcome (VTE recurrence within 190 days) for patients in the 6-month stratum is analyzed using the same method and applying the same non-inferiority margin.
Time to first symptomatic recurrent PE/DVT within the patient's study treatment period for all patients is analyzed using Cox's proportional hazards model, stratified on intended treatment duration.

[4] = tested on: patients with symptomatic pulmonary embolism with or without symptomatic deep venous thrombosis; test: CASSIOPEA (EFC6034) phase III clinical trial: benefit-risk assessment (PE, DVT or major bleeding composite); format: in vivo, human; details: Randomized population; composite endpoint
Source text: Tables 13 and 14 show the incidence of pulmonary embolism, deep venous thrombosis or major bleedings (composite endpoint) in the randomized population in the treatment phase (3-month or 6-month treatment with idrabiotaparinux) and up to the end of the study (assessment at 12 months).

[5] = tested on: patients with symptomatic pulmonary embolism with or without symptomatic deep venous thrombosis; test: CASSIOPEA (EFC6034) phase III clinical trial: clinically relevant bleeding (safety); format: in vivo, human
Source text: According to the instant invention, the term “bleedings” designates any clinically relevant bleeding (i.e. major or clinically relevant non-major hemorrhage).
According to the instant invention, the term “major bleedings” designates any of the following clinical situations: • bleeding associated with a fall in hemoglobin of 2 g per deciliter or more, • bleeding that led to a transfusion of 2 or more units of packed red cells or whole blood (a red cell unit being defined as the quantity of red cells obtained from or corresponding to approximately 500 ml of whole blood), • bleeding that involved a critical organ (intracranial, intraocular, intraspinal, retroperitoneal or pericardial), • bleeding that contributed to death.
as §1
The principal safety outcome is any clinically relevant bleeding as classified by the CIAC (i.e. major bleeding and other clinically relevant non-major bleeding).
Bleeding analyses are also performed on the—All-randomized—population. Other safety analyses are performed on the—All-treated—population.
Rates of clinically relevant bleedings are calculated in each treatment group at 3 months (99 days) and 6 months (190 days) and compared between treatment groups using a Mantel-Haenszel chi-square stratified on intended treatment duration. Cumulative incidences of clinically relevant bleedings during the combined 3-month and 6-month period and up to the end of study are described by treatment group using the Kaplan Meier method.

[6] = Randomized population, All patients
[7] = Randomized population, Patients with VKA beyond D99/D190
[8] = Randomized population, Patients with no VKA beyond D99/D190
[9] = Randomized population, or death for which PE could not be ruled out
[10] = combined 3-month and 6-month periods, time-to-event analysis (Kaplan-Meier)
[11] = treatment period plus 3 to 6-month post-treatment follow-up (up to end of study)

CO[C@H]1O[C@H](COS(=O)(=O)O)[C@@H](O[C@@H]2O[C@@H](C(=O)O)[C@@H](O[C@H]3O[C@H](COS(=O)(=O)O)[C@@H](O[C@@H]4O[C@H](C(=O)O)[C@@H](O[C@H]5O[C@H](COS(=O)(=O)O)[C@@H](OC)[C@H](OC)[C@H]5OC)[C@H](OC)[C@H]4OC)[C@H](OS(=O)(=O)O)[C@H]3OS(=O)(=O)O)[C@H](OC)[C@H]2OC)[C@H](OS(=O)(=O)O)[C@H]1OS(=O)(=O)O [idraparinux]
Outcome in patients with pulmonary embolism [1]: apparent failure

CC(=O)CC(c1ccccc1)c1c(O)c2ccccc2oc1=O (stereo not drawn) [Warfarin, warfarin, reference compound]
Patients who died on study [2]: 5.3%
DVT only within 190 days from randomization: Patients with event ([3]; 6-month stratum): 17 (1.3%) n (%)
Non-fatal PE within 190 days from randomization: Patients with event ([3]; 6-month stratum): 10 (0.8%) n (%)
Symptomatic recurrent PE/DVT (fatal or not) from randomization to end of study: Patients with event ([3]; 6-month stratum, All patients): 76 (6.0%) n (%)
Symptomatic recurrent PE/DVT (fatal or not) from randomization to end of study: Patients with event ([3]; 6-month stratum, Patients with VKA beyond D190): 37 (9.1%) n (%)
Symptomatic recurrent PE/DVT (fatal or not) from randomization to end of study: Patients with event ([3]; 6-month stratum, Patients with no VKA beyond D190): 39 (4.5%) n (%)
Fatal PE within 190 days from randomization: Patients with event ([3]; 6-month stratum, or death for which PE could not be ruled out): 9 (0.7%) n (%)
Patients who experienced DVT up to Day 190 ([3]; 6-month stratum, up to Day 190): 1.3%
DVT only up to the end of study: Patients with event ([3]; Randomized population): 31 (1.9%) n (%)
DVT only within 99 days from randomization: Patients with event ([3]; Randomized population): 18 (1.1%) n (%)
Non-fatal PE up to the end of study: Patients with event ([3]; Randomized population): 41 (2.6%) n (%)
Non-fatal PE within 99 days from randomization: Patients with event ([3]; Randomized population): 9 (0.6%) n (%)
Symptomatic recurrent PE/DVT (fatal or not) within 190 days from randomization: Patients with event ([3]; Randomized population in the 6-month stratum): 36 (2.8%) n (%)
Symptomatic recurrent PE/DVT (fatal or not) from D100/D191 to end of study: Patients with event [3, 6]: 47 (3.1%) n (%)
Symptomatic recurrent PE/DVT (fatal or not) from randomization to end of study: Patients with event [3, 6]: 97 (6.1%) n (%)
Symptomatic recurrent PE/DVT (fatal or not) from D100/D191 to end of study: Patients with event [3, 7]: 32 (6.6%) n (%)
Symptomatic recurrent PE/DVT (fatal or not) from randomization to end of study: Patients with event [3, 7]: 45 (9.3%) n (%)
Symptomatic recurrent PE/DVT (fatal or not) from D100/D191 to end of study: Patients with event [3, 8]: 15 (1.5%) n (%)
Symptomatic recurrent PE/DVT (fatal or not) from randomization to end of study: Patients with event [3, 8]: 52 (4.6%) n (%)
Fatal PE up to the end of study: Patients with event [3, 9]: 25 (1.6%) n (%)
Fatal PE within 99 days from randomization: Patients with event [3, 9]: 16 (1.0%) n (%)
Symptomatic recurrent PE/DVT (fatal or not) within 99 days from randomization: Patients with event ([3]; Randomized population, within 99 days): 43 (2.7%) n (%)
Cumulative incidence of symptomatic recurrent PE/DVT at Day 99 [3, 10]: 2.7%
Cumulative incidence of symptomatic recurrent PE/DVT at Day 190 [3, 10]: 3.4%
Cumulative incidence rate of symptomatic recurrent PE/DVT at Day 360 [3, 11]: 7.2%
Patients who experienced DVT up to Day 99 ([3]; up to Day 99): 1.1%
Patients who experienced DVT up to the end of study ([3]; up to the end of study): 1.9%
Patients who experienced non-fatal PE up to the end of study ([3]; up to the end of study): 2.6%
PE, DVT or major bleeding in the combined 3-month and 6-month period: Patients with event [4]: 98 (6.1%) n (%)
PE, DVT or major bleeding up to the end of study: Patients with event [4]: 150 (9.4%) n (%)
Clinically relevant bleedings up to Day 190 ([5]; 6-month stratum): 8.1%
Fatal bleeding within 190 days from randomization: Patients with event ([5]; 6-month stratum): 5 (0.4%) n (%)
Intracranial haemorrhage (fatal or not) within 190 days from randomization: Patients with event ([5]; 6-month stratum): 6 (0.5%) n (%)
Major bleeding within 190 days from randomization: Patients with event ([5]; 6-month stratum): 36 (2.8%) n (%)
Patients who experienced a major bleeding up to Day 190 ([5]; 6-month stratum): 2.8%
Any clinically relevant bleeding within 99 days from randomization: Patients with event ([5]; Randomized population): 106 (6.6%) n (%)
Fatal bleeding within 99 days from randomization: Patients with event ([5]; Randomized population): 6 (0.4%) n (%)
Intracranial haemorrhage (fatal or not) within 99 days from randomization: Patients with event ([5]; Randomized population): 7 (0.4%) n (%)
Major bleeding within 99 days from randomization: Patients with event ([5]; Randomized population): 39 (2.4%) n (%)
Cumulative incidence of clinically relevant bleeding at Day 99 [5, 10]: 6.7%
Cumulative incidence of clinically relevant bleeding at Day 190 [5, 10]: 9.1%
Cumulative incidence rate of clinically relevant bleeding at Day 360 [5, 11]: 10.0%
Incidence of clinically relevant bleeding up to Day 99 ([5]; up to Day 99): 6.6%
Patients who experienced a major bleeding up to Day 99 ([5]; up to Day 99): 2.4%

— patent publication US20130316965A1, “IDRABI[…] THE TREATMENT OF PULMONARY EMBOLISM AND FOR THE SECONDARY PREVENTION OF VENOUS THRO[…]” (priority 2011, published 2013)
